In ChEMBL document CHEMBL2073756, “Contribution of P-glycoprotein to bunitrolol efflux across blood-brain barrier” (Biopharm Drug Dispos, 1999):

How the values were obtained:
[1] = molecular target: ATP-dependent translocase ABCB1 (Homo sapiens, UniProt P08183); assay: TP_TRANSPORTER: intracellular accumulation in KB cell and KB-VJ300 cells; type: functional, cell-based
[2] = molecular target: ATP-dependent translocase ABCB1 (Mus musculus, UniProt P21447); assay: TP_TRANSPORTER: increase in brain concentration in mdr1a(-/-) mouse; type: functional, organism-based; settings: in vivo
Chain of ATP-dependent translocase ABCB1 (Mus musculus, UniProt P21447) (P21447 whole entry): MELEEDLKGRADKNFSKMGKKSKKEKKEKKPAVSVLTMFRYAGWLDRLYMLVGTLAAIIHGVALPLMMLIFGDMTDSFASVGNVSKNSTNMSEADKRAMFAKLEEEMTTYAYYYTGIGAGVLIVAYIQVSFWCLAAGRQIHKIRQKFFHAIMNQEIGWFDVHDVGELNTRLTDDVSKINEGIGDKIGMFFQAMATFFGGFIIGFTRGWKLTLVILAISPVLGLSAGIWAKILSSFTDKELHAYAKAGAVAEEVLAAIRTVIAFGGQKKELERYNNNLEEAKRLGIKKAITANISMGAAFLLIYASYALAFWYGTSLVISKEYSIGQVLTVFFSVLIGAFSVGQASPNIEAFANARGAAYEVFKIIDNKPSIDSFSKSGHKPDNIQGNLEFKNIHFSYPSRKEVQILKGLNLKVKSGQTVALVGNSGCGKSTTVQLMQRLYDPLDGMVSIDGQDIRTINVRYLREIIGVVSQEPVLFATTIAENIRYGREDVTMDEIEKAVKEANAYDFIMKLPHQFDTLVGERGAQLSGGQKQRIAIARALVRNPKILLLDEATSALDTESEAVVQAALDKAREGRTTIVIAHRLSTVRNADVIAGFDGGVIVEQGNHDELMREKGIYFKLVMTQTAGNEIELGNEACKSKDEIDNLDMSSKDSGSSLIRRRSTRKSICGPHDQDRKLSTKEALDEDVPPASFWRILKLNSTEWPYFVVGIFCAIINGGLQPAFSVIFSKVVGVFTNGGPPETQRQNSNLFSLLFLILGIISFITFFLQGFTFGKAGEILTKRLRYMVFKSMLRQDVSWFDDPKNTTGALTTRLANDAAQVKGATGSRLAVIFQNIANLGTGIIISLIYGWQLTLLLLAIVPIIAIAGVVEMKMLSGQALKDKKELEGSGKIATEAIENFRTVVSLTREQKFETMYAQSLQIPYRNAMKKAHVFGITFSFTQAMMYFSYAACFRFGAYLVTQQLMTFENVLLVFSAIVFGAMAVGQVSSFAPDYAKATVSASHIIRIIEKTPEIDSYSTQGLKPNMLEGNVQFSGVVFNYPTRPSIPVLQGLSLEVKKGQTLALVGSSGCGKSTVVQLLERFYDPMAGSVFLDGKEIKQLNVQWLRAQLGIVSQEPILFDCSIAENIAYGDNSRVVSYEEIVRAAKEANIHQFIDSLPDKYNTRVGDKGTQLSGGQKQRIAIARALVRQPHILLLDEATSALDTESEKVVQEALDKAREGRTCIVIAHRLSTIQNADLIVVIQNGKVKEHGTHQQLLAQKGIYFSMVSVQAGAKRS

Chain of ATP-dependent translocase ABCB1 (Homo sapiens, UniProt P08183) (P08183 whole entry): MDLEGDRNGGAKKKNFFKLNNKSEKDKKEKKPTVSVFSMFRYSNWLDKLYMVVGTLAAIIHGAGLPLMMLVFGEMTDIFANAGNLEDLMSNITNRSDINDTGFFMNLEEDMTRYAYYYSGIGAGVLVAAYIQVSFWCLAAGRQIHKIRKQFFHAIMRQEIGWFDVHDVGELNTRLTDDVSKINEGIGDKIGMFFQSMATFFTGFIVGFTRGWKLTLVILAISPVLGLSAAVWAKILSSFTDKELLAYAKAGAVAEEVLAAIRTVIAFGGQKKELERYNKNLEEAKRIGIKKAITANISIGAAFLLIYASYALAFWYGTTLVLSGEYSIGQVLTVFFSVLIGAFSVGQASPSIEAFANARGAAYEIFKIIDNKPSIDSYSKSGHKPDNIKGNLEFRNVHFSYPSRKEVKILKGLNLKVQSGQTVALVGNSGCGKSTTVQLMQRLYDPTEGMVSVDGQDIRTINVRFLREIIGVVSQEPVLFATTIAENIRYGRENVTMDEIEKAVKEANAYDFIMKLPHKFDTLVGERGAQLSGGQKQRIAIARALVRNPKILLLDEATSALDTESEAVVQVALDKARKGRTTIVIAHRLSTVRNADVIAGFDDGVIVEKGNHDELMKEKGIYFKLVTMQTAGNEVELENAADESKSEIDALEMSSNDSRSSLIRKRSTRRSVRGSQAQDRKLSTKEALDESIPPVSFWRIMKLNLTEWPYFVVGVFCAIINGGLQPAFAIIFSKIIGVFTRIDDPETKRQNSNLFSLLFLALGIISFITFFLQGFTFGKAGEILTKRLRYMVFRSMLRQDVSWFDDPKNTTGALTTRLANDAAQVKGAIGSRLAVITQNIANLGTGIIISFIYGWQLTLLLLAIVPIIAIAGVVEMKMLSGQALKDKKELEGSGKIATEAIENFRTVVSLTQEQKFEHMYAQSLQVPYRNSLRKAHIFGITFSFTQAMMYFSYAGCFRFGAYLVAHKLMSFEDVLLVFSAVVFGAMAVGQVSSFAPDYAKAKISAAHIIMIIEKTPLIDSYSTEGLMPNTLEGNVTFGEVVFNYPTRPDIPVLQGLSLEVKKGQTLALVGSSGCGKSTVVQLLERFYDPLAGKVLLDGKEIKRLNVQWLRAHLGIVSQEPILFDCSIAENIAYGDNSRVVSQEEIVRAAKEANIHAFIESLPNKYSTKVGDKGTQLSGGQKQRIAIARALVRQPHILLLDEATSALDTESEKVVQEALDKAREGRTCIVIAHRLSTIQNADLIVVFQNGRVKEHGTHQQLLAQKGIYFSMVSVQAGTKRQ

Activity [1]: substrate [+] | Activity [2]: substrate [+]
SMILES: CC(C)(C)NCC(O)COc1ccccc1C#N (configuration not stated) [BUNITROLOL]
